Molecular target: T1, HDAC6 enzyme (Homo sapiens, UniProt Q9UBN7)
T1 construct: prepared by transducing full length HDAC6 gene into Sf-9 insect cells; GST; purchased SignalChem; host or cells: Sf-9 insect cells
T1 sequence (Q9UBN7 1-1215): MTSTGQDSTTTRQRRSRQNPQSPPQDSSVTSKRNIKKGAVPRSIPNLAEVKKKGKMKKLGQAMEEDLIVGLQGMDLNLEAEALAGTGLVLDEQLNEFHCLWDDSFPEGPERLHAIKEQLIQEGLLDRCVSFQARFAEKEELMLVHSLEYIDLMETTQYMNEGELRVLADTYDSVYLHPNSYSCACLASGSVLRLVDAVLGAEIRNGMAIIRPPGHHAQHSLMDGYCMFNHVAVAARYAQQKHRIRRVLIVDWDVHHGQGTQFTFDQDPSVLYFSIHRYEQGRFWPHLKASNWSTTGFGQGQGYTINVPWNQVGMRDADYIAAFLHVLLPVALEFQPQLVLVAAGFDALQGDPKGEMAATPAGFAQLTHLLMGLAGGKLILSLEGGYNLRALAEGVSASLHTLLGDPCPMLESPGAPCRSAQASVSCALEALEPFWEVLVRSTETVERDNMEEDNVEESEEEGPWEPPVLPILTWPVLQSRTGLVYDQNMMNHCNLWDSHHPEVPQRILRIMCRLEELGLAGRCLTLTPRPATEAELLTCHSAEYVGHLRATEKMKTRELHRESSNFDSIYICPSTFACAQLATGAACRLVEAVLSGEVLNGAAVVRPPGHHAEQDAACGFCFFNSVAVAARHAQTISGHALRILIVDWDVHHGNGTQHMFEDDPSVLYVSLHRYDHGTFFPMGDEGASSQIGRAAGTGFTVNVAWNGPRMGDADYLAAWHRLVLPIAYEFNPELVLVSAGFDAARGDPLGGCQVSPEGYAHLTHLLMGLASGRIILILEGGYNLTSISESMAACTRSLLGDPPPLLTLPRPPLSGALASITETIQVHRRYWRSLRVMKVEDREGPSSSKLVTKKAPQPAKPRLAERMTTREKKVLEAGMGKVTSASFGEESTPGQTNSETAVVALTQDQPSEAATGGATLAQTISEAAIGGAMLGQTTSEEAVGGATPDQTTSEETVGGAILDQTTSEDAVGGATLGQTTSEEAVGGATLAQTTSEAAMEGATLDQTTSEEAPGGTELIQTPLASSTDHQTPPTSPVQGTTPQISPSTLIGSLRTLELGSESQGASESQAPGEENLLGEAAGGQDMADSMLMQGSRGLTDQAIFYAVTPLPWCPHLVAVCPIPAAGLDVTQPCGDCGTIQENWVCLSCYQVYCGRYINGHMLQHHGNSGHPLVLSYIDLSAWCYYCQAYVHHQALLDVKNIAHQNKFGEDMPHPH
Test: HDAC6 enzyme inhibitory assay (HDAC-Glo I/II Assay kit, luminescence)
Type: biochemical
Conditions: 10 μM test compound, wells without enzyme = 100% inhibition; for inhibition at 10 µM: read-out: HDAC6 inhibitory rate (%) (10 μM)
Procedure, shortened: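 Full-length human HDAC6, GST-purified from Sf-9 cells, was preincubated with compound for 60 min at room temperature in Tris-HCl pH 7.5 buffer with glutathione and Tween-20. Substrate-developer was then added, and luminescence was read after 20 min at room temperature. Inhibition was expressed relative to no-enzyme wells, taken as 100% inhibition.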

CN(Cc1cccc(-c2cnccn2)c1)N1Cc2ccc(-c3nnc(C(F)F)o3)cc2C1=O [Example 53c, 6-[5-(difluoromethyl)-1,3,4-oxadiazol-2-yl]-2-(methyl{[3-(pyrazin-2-yl)phenyl]methyl}amino)-2,3-dihydro-1H-isoindol-1-one]
inhibition at 10 µM: 101%

FC(F)c1nnc(-c2ccnc(-c3nccn3Cc3cncc(Cl)c3)c2)o1 [Example 93a, 2-{1-[(5-chloropyridin-3-yl)methyl]-1H-imidazol-2-yl}-4-[5-(difluoromethyl)-1,3,4-oxadiazol-2-yl]pyridine]
inhibition at 10 µM: 100%

O=C1c2cc(-c3nnc(C(F)F)o3)ccc2CN1NC1CCC(F)(F)CC1 [Example 35c, 2-[(4,4-difluorocyclohexyl)amino]-6-[5-(difluoromethyl)-1,3,4-oxadiazol-2-yl]-2,3-dihydro-1H-isoindol-1-one]
inhibition at 10 µM: 93%

Fc1cc(-c2nnc(C(F)F)o2)cc(-c2nccn2CC2CCOCC2)c1 [Example 30a, 2-(difluoromethyl)-5-(3-fluoro-5-{1-[(oxan-4-yl)methyl]-1H-imidazol-2-yl}phenyl)-1,3,4-oxadiazole]
inhibition at 10 µM: 98%

COC1CCCC(OC(=O)N(Cc2ccc(F)cc2)N2Cc3ccc(-c4nnc(C(F)F)o4)cc3C2=O)C1 (stereo not shown) [Example 24c, 3-methoxycyclohexyl {6-[5-(difluoromethyl)-1,3,4-oxadiazol-2-yl]-1-oxo-1,3-dihydro-2H-isoindol-2-yl}[(4-fluorophenyl)methyl]carbamate]
inhibition at 10 µM: 100%

CN(Cc1cccc2cnccc12)N1Cc2ccc(-c3nnc(C(F)F)o3)cc2C1=O [Example 47c, 6-[5-(difluoromethyl)-1,3,4-oxadiazol-2-yl]-2-{[(isoquinolin-5-yl)methyl](methyl)amino}-2,3-dihydro-1H-isoindol-1-one]
inhibition at 10 µM: 100%

Cc1ccc(Cn2ccnc2-c2cc(-c3nnc(C(F)F)o3)ccn2)cc1 [Example 78a]
inhibition at 10 µM: 103%

FC(F)c1nnc(-c2ccnc(-c3nc(Cl)cn3Cc3ccccn3)c2)o1 [Example 39a, 2-{4-chloro-1-[(pyridin-2-yl)methyl]-1H-imidazol-2-yl}-4-[5-(difluoromethyl)-1,3,4-oxadiazol-2-yl]pyridine]
inhibition at 10 µM: 98%

CN(Cc1ccccc1Oc1cnccn1)N1Cc2ccc(-c3nnc(C(F)F)o3)cc2C1=O [Example 59c, 6-[5-(difluoromethyl)-1,3,4-oxadiazol-2-yl]-2-[methyl({2-[(pyrazin-2-yl)oxy]phenyl}methyl)amino]-2,3-dihydro-1H-isoindol-1-one]
inhibition at 10 µM: 101%

FC(F)c1nnc(-c2ccnc(-c3nc(Cl)c(Cl)n3Cc3ccccn3)c2)o1 [Example 40a, 2-{4,5-dichloro-1-[(pyridin-2-yl)methyl]-1H-imidazol-2-yl}-4-[5-(difluoromethyl)-1,3,4-oxadiazol-2-yl]pyridine]
inhibition at 10 µM: 98%

Cc1cccc(Cn2ccnc2-c2cc(-c3nnc(C(F)F)o3)ccn2)c1 [Example 83a, 4-[5-(difluoromethyl)-1,3,4-oxadiazol-2-yl]-2-{1-[(3-methylphenyl)methyl]-1H-imidazol-2-yl}pyridine]
inhibition at 10 µM: 100%

Cc1ccc(COc2cccnc2-c2cc(F)cc(-c3nnc(C(F)F)o3)c2)cc1 [Example 9a]
inhibition at 10 µM: 79%

CN1C(=O)c2cc(-c3nnc(C(F)F)o3)ccc2OC1(C)c1ccc(C#N)cc1 (single isomer, unassigned; isomer 2) [Example 37b, 4-{6-[5-(difluoromethyl)-1,3,4-oxadiazol-2-yl]-2,3-dimethyl-4-oxo-3,4-dihydro-2H-1,3-benzoxazin-2-yl}benzonitrile (optical isomer 2)]
HDAC6 inhibitory rate (%) (10 μM) (10 µM): 100%

Cc1cc(Cn2ccnc2-c2cc(F)cc(-c3nnc(C(F)F)o3)c2)no1 [Example 61a, 2-(difluoromethyl)-5-(3-fluoro-5-{1-[(5-methyl-1,2-oxazol-3-yl)methyl]-1H-imidazol-2-yl}phenyl)-1,3,4-oxadiazole]
inhibition at 10 µM: 98%

CN1C(=O)c2cc(-c3nnc(C(F)F)o3)ccc2OC1(C)c1cccnc1 (stereo not shown) [Example 43b, 6-[5-(difluoromethyl)-1,3,4-oxadiazol-2-yl]-2,3-dimethyl-2-(pyridin-3-yl)-2,3-dihydro-4H-1,3-benzoxazin-4-one]
inhibition at 10 µM: 100%

COCCN1C(=O)c2cc(-c3nnc(C(F)F)o3)ccc2OC1(C)c1ccc(F)cc1 (stereo not shown) [Example 52b, 6-[5-(difluoromethyl)-1,3,4-oxadiazol-2-yl]-2-(4-fluorophenyl)-3-(2-methoxyethyl)-2-methyl-2,3-dihydro-4H-1,3-benzoxazin-4-one]
inhibition at 10 µM: 100%

CC(C)CN(C(=O)OC(C)(C)C)N1Cc2ccc(-c3nnc(C(F)F)o3)cc2C1=O [Example 5c, tert-butyl {6-[5-(difluoromethyl)-1,3,4-oxadiazol-2-yl]-1-oxo-1,3-dihydro-2H-isoindol-2-yl}(2-methylpropyl)carbamate]
inhibition at 10 µM: 99%

Fc1cc(-c2nnc(C(F)F)o2)cc(-c2nccn2Cc2ccc(F)c(Cl)c2)c1 [Example 68a, 2-(3-{1-[(3-chloro-4-fluorophenyl)methyl]-1H-imidazol-2-yl]-5-fluorophenyl)-5-(difluoromethyl)-1,3,4-oxadiazole]
inhibition at 10 µM: 99%

O=C1c2cc(-c3nnc(C(F)F)o3)ccc2CN1NC1CCOCC1 [Example 34c, 6-[5-(difluoromethyl)-1,3,4-oxadiazol-2-yl]-2-[(oxan-4-yl)amino]-2,3-dihydro-1H-isoindol-1-one]
inhibition at 10 µM: 92%

CN1C(=O)c2cc(-c3nnc(C(F)F)o3)ccc2OC1(C)c1ccc(F)c(F)c1 (stereo not shown) [Example 32b, 6-[5-(difluoromethyl)-1,3,4-oxadiazol-2-yl]-2-(3,4-difluorophenyl)-2,3-dimethyl-2,3-dihydro-4H-1,3-benzoxazin-4-one]
inhibition at 10 µM: 100%

CN1C(=O)c2cc(-c3nnc(C(F)F)o3)cnc2C[C@]1(C)c1cccc(F)c1 [Example 53b, (7R)-3-[5-(difluoromethyl)-1,3,4-oxadiazol-2-yl]-7-(3-fluorophenyl)-6,7-dimethyl-7,8-dihydro-1,6-naphthyridin-5(6H)-one]
inhibition at 10 µM: 98%

FC(F)c1nnc(-c2ccnc(-c3nccn3Cc3ccccc3)c2)o1 [Example 36a, 2-(1-benzyl-1H-imidazol-2-yl)-4-[5-(difluoromethyl)-1,3,4-oxadiazol-2-yl]pyridine]
inhibition at 10 µM: 101%

CN(Cc1ccccc1C(F)F)N1Cc2ccc(-c3nnc(C(F)F)o3)cc2C1=O [Example 65c, 6-[5-(difluoromethyl)-1,3,4-oxadiazol-2-yl]-2-[{[2-(difluoromethyl)phenyl]methyl} (methyl)amino]-2,3-dihydro-1H-isoindol-1-one]
inhibition at 10 µM: 101%

O=C1c2cc(-c3nnc(C(F)F)o3)ccc2CN1N(Cc1ccc(F)cc1)Cc1ccc(F)cc1 [Example 7c, 2-{bis[(4-fluorophenyl)methyl]amino}-6-[5-(difluoromethyl)-1,3,4-oxadiazol-2-yl]-2,3-dihydro-1H-isoindol-1-one]
inhibition at 10 µM: 100%

Fc1cc(-c2nnc(C(F)F)o2)cc(-c2nccn2Cc2cccc(Cl)c2)c1 [Example 21a, 2-(3-[1-[(3-chlorophenyl)methyl]-1H-imidazol-2-yl}-5-fluorophenyl)-5-(difluoromethyl)-1,3,4-oxadiazole]
inhibition at 10 µM: 93%
